Assay results published in patent publication US9783551B2, “Pyranochromenyl phenol derivative, and pharmaceutical composition for treating metabolic syndrome or inflammatory disease” (GLACEUM, INC., priority 2013, dated 2017).

Assays:
[1] = Chemical stability in 1% NaOH in MeOH (HPLC); format: physicochemical
Method: (§1) The relative chemical stability of glabridin of Preparation Example 1, Example 3 (Compound 4), Example 4 (Compound 5) and Example 14 (Compound 15) were compared with each other. That is, 50 mg of each of glabridin, Compound 4, Compound 5, and Compound 15 was exactly weighed, dissolved in 50 ml of 1% HCl in MeOH and 10 ml of 1% NaOH in MeOH, and the concentrations of the compounds were examined by HPLC at each time level of 0, 8 hrs, 12 hrs, 24 hrs, 48 hrs, and 72 hrs. At this time, the concentrations of the compounds remaining in 1% HCl in MeOH and 1% NaOH in MeOH were determined using an internal standard (Compound 14 of Example 13). That is, 10 mg of Compound 14 was exactly weighed and dissolved in 100 ml of acetonitrile, 9 ml of this solution was mixed with 1 ml of the sample aliquoted at each time level, the mixture was analyzed by HPLC, and the concentrations of the compounds in the internal standard and in the above samples were determined by comparing the initial values.
(§2) The concentrations of the compounds remaining in 1% HCl in MeOH and 1% NaOH in MeOH at each time level are in the following Table 8 and FIG. 7 and the following Table 9 and FIG. 8, respectively.
(§3) The numerical values exceeding 100% in the following Tables 8 and 9 show those measured at a concentration is slightly higher than the initial measurement value, and this is due to the fact that an average value of the measured values was simply shown without considering a statistical error generated during the measurement. Since the measured value of about 95% or more is deemed to have practically no change in concentration, it may be seen that the compounds of the present invention are excellent in chemical stability.

[2] = molecular target: PTP1B (Homo sapiens (Human), UniProt P18031); test: Experiment of PTP1B inhibition (p-NPP dephosphorylation); format: biochemical; details: 2 mM p-NPP substrate, 30° C., 30 minutes
Excerpt: With respect to PTP1B, the degrees of inhibition (IC50 The half maximal inhibitory concentration) of glabridin, and compounds of Preparation Example 2 (Compound 1), Example 2 (Compound 3), Example 3 (Compound 4), Example 4 (Compound 5), Example 13 (Compound 14), Example 14 (Compound 15), Example 15 (Compound 16), Example 17 (Compound 18), Example 18 (Compound 19) and Example 20 (Compound 21) were compared to each other. For this purpose, the degree of inhibition activity for PTP1B was investigated by using 2 mM p-nitrophenyl phosphate (p-NPP) as a substrate to measure the dephosphorylation degree. First, PTP1B diluted with distilled water was reacted with 2 mM p-nitrophenyl phosphate {p-NPP, 0.1 M NaCl, 1 mM EDTA, 50 mM citrate pH 6.0, and 1 mM dithiothreitol (DTT)} and Compound 1 at various concentrations at 30° C. for 30 minutes, and then the reaction was terminated with a 1 N-sodium hydroxide (NaOH) solution. The absorbance of the samples thus prepared was measured to confirm the inhibition degree (IC50: The half maximal inhibitory concentration) for PTP1B activity according to the concentration of Compound 1. Even for glabridin, Compound 3, Compound 4, Compound 5, Compound 14, Compound 15, Compound 16, Compound 18, Compound 19, and Compound 21, the same measurement was performed.

[3] = system: DIO mice; test: Anti-obesity effect for DIO mice (body weight); format: in vivo, C57BL/6 mice; details: Mus musculus, 672 h; 4 weeks, 150 mg/kg, oral gavage once daily
Method: (§4) Five-week-old female C57BL/6 mice (Narabio Co., Ltd.) were purchased and fed with only high-fat diet for at least 10 weeks to produce diet induced obesity ([…]) mice. Samples were exactly taken from Preparation Example 1 (glabridin) and the compounds of Examples of the present invention (Compounds 1 to 5, 7, 9, 11, 14 to 16, 21, and 23) according to the administration dose and put into Falcon tubes, 3 ml of a 0.5% methyl cellulose aqueous solution was added thereto and a vortex mixer was used to primarily mix the ingredients in a soft manner, and then a homogenizer (30,000 rpm, Ultra-Turrax® T10 Basic, IKA) was used to treat the sample for 3 minutes while 1.5 ml of a 0.5% methyl cellulose aqueous solution was added thereto. The sample thus prepared was administered through oral gavage using a disposable plastic syringe once daily for 28 days (4 weeks). The body weight was measured twice a week while the DIO mice were bred in this manner. Based on the data thus calculated, the anti-obesity effect (%) was calculated according to the equation defined as follows. Anti-Obesity Effect={(Body weight of control group)−(Body weight of experimental group)}/(Body weight of control group)×100

[4] = Chemical stability in 1% HCl in MeOH (HPLC); format: physicochemical
Method: as §1, §2, §3

[5] = system: RAW264.7 macrophages; test: RAW264.7 macrophage NO assay (LPS-induced NO production, Griess reagent); format: cell-based; details: for IC50: Mus musculus, RAW264.7, NO production, LPS 1 μg/ml, 24 hours
Method: (§5) After the pretreatment, the MTT (Sigma, M2128) reagent at a concentration of 0.5 mg/ml was further added thereto. After the cells were cultured in a 5% CO2 incubator for 4 hours, the supernatant was discarded, 150 μl of DMSO was added and was shaken for 30 minutes, and an ELISA micro plate reader (Bio Rad Laboratories Inc., California, USA, Model 680) was used to measure the absorbance at a wavelength of 540 nm. All the experimental values were calculated as an average value of three repeated experimental values of the cell protection rate for the control group, and an experiment of suppressing the NO production for each compound was carried out at a concentration in which no cytotoxicity was shown.
(§6) After the reaction, an ELISA micro plate reader (Bio Rad Laboratories Inc., California, USA, Model 680) was used to measure the absorbance at a wavelength of 540 nm. The suppression rate was calculated as a difference in amount of NO produced between the control group and the experimental group, and as shown in the following Table 7, Compounds 4, 5, 15, 16, 18, and the like of the present invention were excellent in the effect of suppressing the production of NO.

[6] = system: BV2 microglia cells; test: BV2 cell NO assay (LPS-induced NO production, Griess reagent); format: cell-based; details: Mus musculus, BV-2, LPS 1 μg/ml, 24 hours
Method: as §5, with “pretreatment, 0.5 mg/ml of” for “pretreatment,”, “reagent” for “reagent at a concentration of 0.5 mg/ml”, “incubator,” for “incubator for 4 hours,”
as §6, with “6 and FIG. 6,” for “7,”, “NO, and the effect is also about 5 times to about 9 times better than that of glabridin.” for “NO.”

[7] = system: DIO mice; test: Organ weights and blood biochemistry of DIO mice after 28 days of administration; format: in vivo, C57BL/6 mice; details: 150 mg/kg
Method: as §4
After the experiment was performed for 28 days (4 weeks) as described above, blood was simultaneously taken while the experimental animal was finally sacrificed, and each of the organs (liver, heart, kidney, pancreas, fat tissues and the like) was removed to measure the weight and observe peculiar matters.
In Table 3, { }, ( ) and the like were used in order to differentiate experiments which had been performed at different periods. Experiments without the parenthesis were those simultaneously performed under the same conditions.

[8] = system: C2C12 cells; test: Glucose uptake (2-NBDG) in C2C12 cells; format: cell-based; details: 24 hours
Method: In terms of capacity of glucose uptake in C2C12 cells, the compound (Compound 15) of Example 14 of the present invention was compared with the existing Rosiglytazone and Metformin which were used or are currently used as a therapeutic agent for diabetes. The C2C12 cell was cultured in a Dulbecco's modified eagle medium (DMEM) supplemented with 10% fetal bovine serum (FBS), penicillin (120 unit/mL), and streptomycin (75 μg/mL), the medium used for differentiation was a DMEM medium supplemented with 1% horse serum, and the C2C12 cell was cultured in the DMEM medium for 4 days. The cell thus cultured was treated with Compound 15 in a low-glucose, serum-free medium supplemented with 2-[N-(7-nitrobenz-2-oxa-1,3-diazol-4-yl)amino]-2-deoxy-d-glucose (2-NBDG) for 24 hours to measure the glucose absorbance at an excitation wavelength of 485 nm and an emission wavelength of 535 nm using a fluorescent detector. The same experiment was performed on Rosiglytazone and Metformin.

Sequence of PTP1B (P18031 whole entry, species assumed): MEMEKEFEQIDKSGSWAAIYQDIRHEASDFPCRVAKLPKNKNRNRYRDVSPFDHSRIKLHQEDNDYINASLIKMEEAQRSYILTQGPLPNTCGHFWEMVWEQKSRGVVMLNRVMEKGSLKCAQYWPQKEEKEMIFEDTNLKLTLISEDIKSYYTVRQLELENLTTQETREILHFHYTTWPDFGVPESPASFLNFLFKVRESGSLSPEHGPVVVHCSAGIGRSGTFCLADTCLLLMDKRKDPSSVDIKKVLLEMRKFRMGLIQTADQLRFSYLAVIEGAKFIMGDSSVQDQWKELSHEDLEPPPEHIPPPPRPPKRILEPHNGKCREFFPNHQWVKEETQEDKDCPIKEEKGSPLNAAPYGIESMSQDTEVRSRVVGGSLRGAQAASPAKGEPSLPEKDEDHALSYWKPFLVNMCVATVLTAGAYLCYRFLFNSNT

Row | concentration of compound remaining [1]; 0 [%] | concentration of compound remaining ([1]; 8 h) [%] | concentration of compound remaining ([1]; 24 h) [%] | concentration of compound remaining ([1]; 48 h) [%] | concentration of compound remaining ([1]; 72 h) [%] | IC50 [2] [µM] | concentration of compound remaining [4]; 0 [%] | concentration of compound remaining ([4]; 8 h) [%] | concentration of compound remaining ([4]; 24 h) [%] | concentration of compound remaining ([4]; 48 h) [%] | concentration of compound remaining ([4]; 72 h) [%] | IC50 [5] [µM] | IC50 [6] [µM] | SMILES | inhibition in vivo at 150 mg/kg [3] [%] | further results
1 | 100 | 101 | 101 | 99 | 100 | 2.9 | 100 | 99 | 101 | 101 | 100 | 8.6 | 3.7 | CCc1ccc(C2COc3c(ccc4c3CCC(C)(C)O4)C2)c(O)c1 (stereo not drawn) [Compound 4, 3-(2-hydroxy-4-ethylphenyl)-8,8-dimethyl-2,3,4,8,9,10-hexahydropyrano [2,3-f] chromene] | 18 | stability in words ([1]; until 3 days (72 hours)): very stable; stability in words ([4]; until 3 days (72 hours)): very stable; effect of suppressing the production of NO ([5]; RAW264.7 macrophages, in words): excellent; ALT (U/L) ([7]; ( ) experiment): (58) U/L; AST (U/L) ([7]; ( ) experiment): (209) U/L; BMI ([7]; ( ) experiment): (2.9); FFA (μEq/L) ([7]; ( ) experiment): (2380) μEq/L; Fat (g), weight of fat removed around the epididymis and the kidney ([7]; ( ) experiment): (1.20) g; LDL (mg/dL) ([7]; ( ) experiment): (18) mg/dL; Liver (g), weight of liver ([7]; ( ) experiment): (1.25) g
2 | – | – | – | – | – | – | – | – | – | – | – | – | – | CN(C)C(=N)N=C(N)N [Metformin] | – | 2-NBDG uptake (Fold Induction) ([8]; treatment concentration 20 μM): 1.89 ± 0.03 Fold Induction
3 | – | – | – | – | – | – | – | – | – | – | – | – | – | CN(CCOc1ccc(CC2SC(=O)NC2=O)cc1)c1ccccn1 (stereo not drawn) [Rosiglytazone] | – | 2-NBDG uptake (Fold Induction) ([8]; treatment concentration 50 μM): 1.94 ± 0.15 Fold Induction
4 | 100 | 71 | 38 | 23 | 13 | 48 | 100 | 99 | 94 | 82 | 74 | 9.3 | 19.6 | CC1(C)C=Cc2c(ccc3c2OC[C@@H](c2ccc(O)cc2O)C3)O1 [Glabridin, glabridin, reference compound] | 2 | ALT (U/L) ([7]; experiment without parenthesis): 41 U/L; AST (U/L) ([7]; experiment without parenthesis): 90 U/L; BMI ([7]; experiment without parenthesis): 4.2; FFA (μEq/L) ([7]; experiment without parenthesis): 1520 μEq/L; Fat (g), weight of fat removed around the epididymis and the kidney ([7]; experiment without parenthesis): 2.70 g; LDL ([7]; experiment without parenthesis): 10 mg/dL; Liver (g), weight of liver ([7]; experiment without parenthesis): 1.23 g; ALT (U/L) ([7]; { } experiment): {89} U/L; AST (U/L) ([7]; { } experiment): {170} U/L; BMI ([7]; { } experiment): {4.2}; FFA (μEq/L) ([7]; { } experiment): {1913} μEq/L; Fat (g), weight of fat removed around the epididymis and the kidney ([7]; { } experiment): {1.92} g; LDL (mg/dL) ([7]; { } experiment): {17} mg/dL; Liver (g), weight of liver ([7]; { } experiment): {1.48} g
